For one assay, the system named is β2-AR/cAMP signaling. The assay is described as follows: FRET imaging of cAMP (ICUE3 probe) in hBSMCs after β2-AR stimulation. Particulars: hBSMCs pre-treated 50 μM, 30 minutes; ISO 100 nM + CGP-20712A 100 nM. Format: cell-based, human. As to the method:
Human bronchial smooth muscle cells (hBSMCs) were transfected with a plasmid encoding the FRET probe for cAMP, ICUE3 (described in the U.S. Pat. No. 8,236,523 B2) (2), by electroporation with a Nucleofector device (AMAXA, Gaithersburg, Md.), according to the manufacturer's protocol. Briefly, 1×10^6 cells were re-suspended in 100 μL of nucleofection solution (VPI-1004, AMAXA, Gaithersburg, Md.), mixed with 1 μg of pcDNA3-ICUE3 (described in U.S. Pat. No. 8,236,523 B2), and subjected to electroporation in a nucleofection apparatus of Amaxa Biosystems (Program A-033). Live cell imaging experiments were performed at 24 hours after transfection.
Measurements of cAMP levels were performed on human bronchial smooth muscle cells (hBSMCs) that express the FRET probe ICUE3, as described previously (2). Briefly, cells were maintained in a K^+-Ringer solution containing (in mmol/L) 121.6 NaCl, 5.4 KCl, 1.8 MgCl2, 1.8 CaCl2, 4 NaHCO3, 0.8 NaH2PO4, 5 D-glucose, 5 sodium pyruvate, 10 HEPES, at pH 7.4. […] FRET efficiency was calculated using the “Method 3” provided by the Leica wizard application for FRET imaging and sensitized emission, according to which: EA(i)=B/A, where EA(i) is the apparent FRET efficiency; A and B are the intensities of the CFP channel and FRET, respectively. […]

In the next assay the test system is hBSMCs. The assay is described as follows: Measurements of calcium transients (Indo-1) in hBSMCs. Type of assay: cell-based, human. Particulars: 50 μM, 30 minutes. On the procedure: Cells were washed with a Tyrode solution containing (in mmol/L): 5 HEPES, 154 NaCl, 4 KCl, 2 CaCl2, 1 MgCl2, 5.5 D-glucose, at pH 7.35 and placed on an inverted microscope. Cells were kept in Tyrode solution and treated with a KCl depolarizing solution containing (in mmol/L): 5 HEPES, 118 NaCl, 40 KCl, 2 CaCl2, 1 MgCl2, 5.5 D-glucose, at pH 7.35. Calcium transients were analyzed as the ratio of fluorescence signals measured at 400 nm and 490 nm following excitation of Indo-1-AM-loaded cells at 350 nm. Experiments were recorded and analyzed with Igor® Software, using the functions added by Jason Rothman (Neuromatic, www.thinkrandom.com).

Assay [1] relates to lung inflammation in mice sensitized with ovalbumin. The assay is described as follows: Analysis of airway inflammation in asthmatic mice. Format: in vivo, BALB/C mice. The conditions noted are these: OVA-sensitized mice, vs P1. As to the method: Ovalbumin (100 μg) (OVA, Sigma-Aldrich, St. Louis, Mo.), complexed with aluminum potassium sulfate (1 mg, alum) was administered intraperitoneally (i.p.) on days 1 and 14, and intra-nasally (i.n.) (50 μg OVA in 50 μl PBS) on days 14, 25, 26, and 27. Control mice received i.p. injections of alum and i.n. injections of PBS only. Airway hyperreactivity induced by inhaled methacholine was measured at 24 hours after the final dose of OVA (Day 28).
Wild-type BALB/C mice were treated, by intra-tracheal instillation, with 25 μg of the Trojan peptide derived from PI3Kγ or equimolar amounts of P1 control peptide, in a final volume of 70 μL of phosphate-buffered saline (PBS), before each intranasal administration of ovalbumin (days 14, 25, 26, and 27 of the protocol of immunization with ovalbumin). At 24 hours after the final injection (day 28), mice were anesthetized (sodium pentobarbital, 70-90 mg/kg, i.p.) and the tracheas incised and cannulated. The airways were washed with 2.5 ml of phosphate-buffered saline solution (PBS). The total number of cells in the bronchoalveolar lavage (BAL) was determined with a Neubauer hemocytometer. A volume of 50 μL of BAL was centrifuged onto cytospin glass slides at 400 rpm at room temperature for 5 minutes and stained with a Diff-Quick system (LabAids, Ronkonkoma, USA). A total of 100 cells per slide were counted and classified as neutrophils, macrophages, lymphocytes and eosinophils on the basis of morphological criteria. Erythrocytes and epithelial cells were ignored and the results were expressed as cells/ml.
To assess the peribronchial inflammation, the lungs of a group of animals that had not been subjected to bronchoalveolar lavage were explanted, fixed in a solution of 4% paraformaldehyde (PFA) for 24 hours at 4° C. and embedded in paraffin. Slices that were 5 μm-thick, deparaffinized, stained with a hematoxylin-eosin solution (Bio-Optica, Milano, Italy), dehydrated and mounted with glass coverslips. The extent of peribronchial inflammation was classified as follows: 0—normal; 1—few inflammatory cells; 3—a thick ring of inflammatory cells.
To evaluate the presence of goblet cells, lung slices were stained with periodic acid-Schiff's reagent (PAS) (Bio-Optica, Milano, Italy) and the percentage of PAS-positive cells was calculated by counting the number of PAS-positive epithelial cells and total epithelial cells.

Setting [2] is: 25 μg/mouse intra-tracheal before each intranasal OVA.

One sequence from patent US11352400B2, “PI3K gamma inhibitor peptide for treatment of respiratory system diseases” (Kither Biotech S.r.I., priority 2014, dated 2022) can be followed below.

As to “RQIKIWFQNRRMKWKKGKATHRSPGQIHLVQRHPPSEESQAF (fusion peptide comprising SEQ ID No.1 and SEQ ID No.3) [Trojan peptide derived from PI3Kγ]”, the “increase of cAMP accumulation following stimulation of β2-ARs” value in the assay on β2-AR/cAMP signaling was 35%. For the same sequence, the “influx of Ca2+ induced by KCl (through VOCCs)” value with hBSMCs (40 mM KCl depolarizing solution) is recorded as “completely abolished”. Besides, the “maximum peak of Ca2+ transients induced by carbachol” value in the assay on hBSMCs (carbachol 10 μM, vs vehicle or P1) is “significantly lower”. For the same sequence, in assay [1] (setting [2]), the “number of goblet cells (PAS-positive)” value was “significantly reduced”, the “number of neutrophils in the bronchoalveolar lavage” value was “significantly lower” and the peribronchial inflammatory infiltrate result is reported as “significantly reduced”. For the same sequence, in assay [1] (25 μg/mouse), the “eosinophils in the bronchoalveolar lavage” value is “unchanged”, the “lymphocytes in the bronchoalveolar lavage” value is “unchanged” and the “macrophages in the bronchoalveolar lavage” value is listed as “unchanged”.
